Assay type in all cases: cell-based, human
Test [1] deals with p53 expression in resistant AML blasts with absent p53 expression. Put plainly: Ex vivo AML blasts epigenetic and MDM2 inhibitor apoptosis assay. The conditions noted are these: alone or in combination, followed by MI-219; four AML cases with absent or very low p53 mRNA. On the procedure: Blasts enriched to >90% purity using methods detailed above were incubated with either DMSO or 0.5 μM 5-azacytidine (A2385, Sigma-Aldrich, Saint Louis, Mo.) for 48 hours (with 5-azacytidine replenished every 24 hours). During the last 12 hours of incubation, blasts were further aliquoted and treated with either 0.3 μM Trichostatin A (#9950, Cell Signaling Technology, Danvers, Mass.) or DMSO. At the end of the 48 hour incubation, each of the four differentially treated subgroups of blasts were treated with MI-219 at final concentrations of 0, 2.5, 5 and 10 μM for 40 hours, followed by annexin-V/PI FACS-based analysis of apoptosis. Aliquots of blasts in parallel were cultured in a 48-well plate at 10^6 cells per well in 1 ml of medium and treated with 10 μM MI-219 or solvent for 8 hours. Blasts were harvested, lysed and protein prepared for immunoblotting as described.
Attempting to obtain evidence for epigenetic p.53 gene silencing in AML with absent p53 mRNA expression, four AML cases were selected based on the availability of cryopreserved cells with absent or very low p53 mRNA for further analysis and treated purified blasts with trichostatin A and azacytidine (alone or in combination) followed by treatment with MI-219. Readouts for these experiments was the fraction of blasts undergoing apoptosis and posttreatment p53 protein levels. […]

Test [2] relates to ML-2. Put plainly: MI-219 apoptosis induction in AML cell lines. The conditions noted are these: ML-2 AML cell line, p53 wt. The method, then: (§1) Next—the ability of MI-219 to induce apoptosis in 19 AML-derived cell lines was assessed.
For test [3], the system named is HL60. Briefly: MI-219 apoptosis induction in AML cell lines. The conditions noted are these: HL60 AML cell line, p53 deleted. On the procedure: as §1
The test system of test [4] is Kasumi-3. Put plainly: MI-219 apoptosis induction in AML cell lines. The conditions noted are these: Kasumi-3 AML cell line, p53 (exon5-9) mut. The method, then: as §1
Test [5] deals with MOLM-16. Put plainly: MI-219 apoptosis induction in AML cell lines. The conditions noted are these: MOLM-16 AML cell line, p53 (exon5-9) mut. The method, then: as §1
The subject of test [6] is OCI-AML-2. Put plainly: MI-219 apoptosis induction in AML cell lines. The conditions noted are these: OCI-AML-2 AML cell line, p53 wt. The method, then:
as §1

Test [7] relates to SIG-M5. Briefly: MI-219 apoptosis induction in AML cell lines. The conditions noted are these: SIG-M5 AML cell line, p53 wt. The method, then:
as §1

The test system of test [8] is OCI-AML-5. Briefly: MI-219 apoptosis induction in AML cell lines. The conditions noted are these: OCI-AML-5 AML cell line, p53 wt. On the procedure: as §1
Test [9] relates to AP-1060. Put plainly: MI-219 apoptosis induction in AML cell lines. The conditions noted are these: AP-1060 AML cell line, p53 wt. On the procedure:
as §1

Test [10] has as its system Kasumi-1. Briefly: MI-219 apoptosis induction in AML cell lines. The conditions noted are these: Kasumi-1 AML cell line, p53 (exon5-9) mut. On the procedure:
as §1

Test [11] has as its system AML-193. Put plainly: MI-219 apoptosis induction in AML cell lines. The conditions noted are these: AML-193 AML cell line, p53 (exon5-9) mut. The method, then: as §1
Test [12] relates to MOLM-13. Put plainly: MI-219 apoptosis induction in AML cell lines. The conditions noted are these: MOLM-13 AML cell line, p53 wt. On the procedure: as §1
Test [13] deals with OCI-AML-3. Put plainly: MI-219 apoptosis induction in AML cell lines. The conditions noted are these: OCI-AML-3 AML cell line, p53 wt. On the procedure:
as §1

The test system of test [14] is SKM-1. Put plainly: MI-219 apoptosis induction in AML cell lines. The conditions noted are these: SKM-1 AML cell line, p53 (exon5-9) mut. On the procedure: as §1
Test [15] deals with OCI-M2. Put plainly: MI-219 apoptosis induction in AML cell lines. The conditions noted are these: OCI-M2 AML cell line, p53 (exon5-9) mut. On the procedure: as §1
The subject of test [16] is GF-D8. Briefly: MI-219 apoptosis induction in AML cell lines. The conditions noted are these: GF-D8 AML cell line, p53 (exon5-9) mut. The method, then: as §1
For test [17], the system named is MONO-MAC-6. Briefly: MI-219 apoptosis induction in AML cell lines. The conditions noted are these: MONO-MAC-6 AML cell line, p53 (exon5-9) mut. The method, then: as §1
For test [18], the system named is MUTZ-2. Put plainly: MI-219 apoptosis induction in AML cell lines. The conditions noted are these: MUTZ-2 AML cell line, p53 wt. On the procedure: as §1
The test system of test [19] is ME-1. Put plainly: MI-219 apoptosis induction in AML cell lines. The conditions noted are these: ME-1 AML cell line, p53 (exon5-9) mut. On the procedure:
as §1

For test [20], the system named is KG-1. Briefly: MI-219 apoptosis induction in AML cell lines. The conditions noted are these: KG-1 AML cell line, p53 (exon5-9) mut. The method, then:
as §1

The test system of test [21] is AML blasts. Put plainly: Ex vivo AML blasts MDM2 inhibitor apoptosis assay (annexin-V/PI FACS). The method, then:
Blasts enriched to >90% purity using methods detailed above were incubated in serum-supplemented RPMI medium at 2.5×10^5 cells in 100 μl final volume in the presence of various concentrations of the MDM2 inhibitors MI-219 and MI-63 (range 0.625-20 μM) for 40 hours. Apoptosis and necrosis was measured for each treated blast aliquot using annexin-V/PI FACS-based readouts and values subsequently normalized to spontaneous death rates in untreated parallel cultures according to the formula (% alive=% mean alive treated samples/% mean alive paired non-treated samples).
To evaluate the efficacy of MDM2 inhibitor-mediated apoptotic cell kill in AML blasts ex vivo, blasts from 109 AML specimens (97 with wild type p53 and 12 with mutant p53 by exon 5-9 exon sequence analysis) were purified to >90% purity and cell aliquots were incubated for 40 hours with escalating concentrations of the MDM2 inhibitors MI-219 (N=109) and MI-63 (N=60). The apoptotic cell fraction in treated samples was subsequently quantitated through annexin V-PI-based FACS analysis and normalized to measurements in paired untreated cells.

Test [22] deals with p53. Briefly: p53 immunoblot of AML cell lines after MI-219 treatment.
Where [23] appears, read: ex vivo, blasts from 109 patients.

Like-named read-outs stand apart in the source and are kept apart here.

In the case of `Nc1ncn([C@@H]2O[C@H](CO)[C@@H](O)[C@H]2O)c(=O)n1` [Azacytidine, 5-azacytidine], the “p53 expression after treatment” value in test [1] is reported as “Does Not Induce p53 Expression”.
Turning to `CC(C)(C)C[C@H]1N[C@@H](C(=O)NCCN2CCOCC2)[C@H](c2cccc(Cl)c2F)[C@@]12C(=O)Nc1cc(Cl)ccc12` [MI-63], the IC50 in test [2] was 7.47 µM; in test [3] it was over 10 µM; in test [4] it was over 10 µM; in test [5], over 10 µM; in test [6], 4.74 µM; in test [7], 3.8 µM. Moreover, the IC50 was over 10 µM in test [8]; 4.03 µM in [9]; over 10 µM in test [10]; over 10 µM in test [11]; 2.85 µM in test [12]; over 10 µM in test [13]. The IC50 is over 10 µM in [14]; over 10 µM in test [15]; over 10 µM in [16]; over 10 µM in [17]; 1.17 µM in test [18]; over 10 µM in test [19]. The same molecule had a 50% inhibitory concentration (IC50) in test [20] of over 10 µM.
For the molecule `CC(C)(C)C[C@H]1N[C@@H](C(=O)NCC[C@H](O)CO)[C@H](c2cccc(Cl)c2)[C@@]12C(=O)Nc1cc(Cl)c(F)cc12.Cl` [MI-219], the half-inhibitory concentration (IC50) in test [2] is 7.04 µM; in [3], over 20 µM; in test [4], over 20 µM; in test [5], over 20 µM; in [6] it was 5.25 µM; in test [7] it was 3.44 µM. In addition, the IC50 in test [8] is 13.8 µM; in test [9] it was 4.22 µM; in [10] it was over 20 µM; in test [11], over 20 µM; in test [12], 2.66 µM; in test [13] it was 18.2 µM. For the same molecule, the IC50 in test [14] was over 20 µM; in test [15], over 20 µM; in test [16], over 20 µM; in [17], over 20 µM; in [18], 1.28 µM; in test [19], over 20 µM. Further, the IC50 in [20] is over 20 µM; in test [21] (all AML with wild type p53 exon 5-9, read-out: threshold IC50 value at the 25th percentile), 1.78 µM; in test [21] (all AML with wild type p53 exon 5-9, read-out: threshold IC50 value at the 50th percentile) it was 3.2 µM; in test [21] (previously untreated AML cases, exclusive of p53 exon 5-9 mutations, read-out: mean IC50), 6.6 µM; in [21] (primary AML, exclusive of cases with p53 exon 5-9 mutations, 40 hours, read-out: mean IC50), 6.1 µM; in test [21] (relapsed AML cases, exclusive of p53 exon 5-9 mutations, read-out: mean IC50), 4.4 µM. Moreover, the IC50 in [21] (secondary AML, exclusive of cases with p53 exon 5-9 mutations, 40 hours, read-out: mean IC50) worked out at 7.9 µM; in test [21] (tAML, exclusive of cases with p53 exon 5-9 mutations, 40 hours, read-out: mean IC50), 4.8 µM. Besides, the “fraction of AML cases with wild type p53 with IC50>10 μM” value in test [21] (21/97 cases) is listed as 22%. Further, the “fraction of AML cases with wild type p53 exon 5-9 that were very sensitive (IC50<2 μM)” value in test [21] (32/97 cases) amounted to 33%. For the same molecule, the “fraction of AML cases with wild type p53 with IC50>5 μM” value in [21] (32/97 cases) came to 33%. Further, the “fraction of AML cases with wild type p53 exon 5-9 that were sensitive (IC50>2 μM to <5 μM)” value in [21] (33/97 cases) was 34%. In addition, the “fraction of AML samples with FLT3-ITD with IC50 <2 μM” value in test [21] (FLT3-ITD, N=19) was found to be 58%. The “fraction of AML samples with FLT3-ITD with IC50 <5 μM” value in [21] (FLT3-ITD, N=19) was determined as 84%. Moreover, the “fraction of AML cases with unmutated p53 with primary resistance” value in test [21] (setting [23]) was about 30%. Besides, in [21] (setting [23]), the “sensitivity of AML cases with mutated p53” value is on record as “resistant”. Moreover, the “p53 immunoblot (MI-219 10 μM)” value in test [22] (AP-1060) is on record as “Inducible”; in test [22] (GF-D8) it was “non-inducible”; in [22] (Kasumi-1), “non-inducible”; in test [22] (Kasumi-3), “non-inducible”; in test [22] (ML-2) it was “Inducible”; in test [22] (MOLM-13) it was “Inducible”. Besides, the “p53 immunoblot (MI-219 10 μM)” value in test [22] (MOLM-16) is on record as “non-inducible”; in test [22] (MONO-MAC-6) it was “non-inducible”; in [22] (MUTZ-2), “Inducible”; in test [22] (OCI-AML-2) it was “Inducible”; in test [22] (OCI-AML-3) it was “Inducible”; in test [22] (OCI-AML-5) it was “Inducible”. Besides, the “p53 immunoblot (MI-219 10 μM)” value is “non-inducible” in test [22] (OCI-M2), “Inducible” in [22] (SIG-M5) and “non-inducible” in test [22] (SKM-1).
With `COc1ccc(C2=N[C@@H](c3ccc(Cl)cc3)[C@@H](c3ccc(Cl)cc3)N2C(=O)N2CCNC(=O)C2)c(OC(C)C)c1` [Nutlin, reference compound], the 50% inhibitory concentration (IC50) is 10.4 µM in test [2]; over 10 µM in [3]; over 10 µM in test [4]; over 10 µM in [5]; 7.22 µM in test [6]; 4.73 µM in test [7]. Besides, the IC50 in test [8] is over 10 µM; in test [9], 6.77 µM; in test [10], over 10 µM; in test [11], over 10 µM; in test [12], 4.04 µM; in test [13], over 10 µM. For the same molecule, the IC50 in test [14] was over 10 µM; in [15], over 10 µM; in test [16], over 10 µM; in [17], over 10 µM; in test [18], 0.951 µM; in test [19] it was over 10 µM. The IC50 in test [20] was over 10 µM.
In the case of `CC(/C=C/C(=O)NO)=C\[C@@H](C)C(=O)c1ccc(N(C)C)cc1` [Trichostatin A], the “p53 expression after treatment” value in test [1] is listed as “Does Not Induce p53 Expression”.

As usually defined, the IC50 is the concentration that gives 50% inhibition.

The values above are taken from patent publication US20110251252A1, “BIOMARKERS FOR MDM2 INHIBITORS FOR USE IN TREATING DISEASE” (THE REGENTS OF THE UNIVERSITY OF MICHIGAN, priority 2010, published 2011).
